In article PMC5877551, “Structure-Activity Relationships of Thiazolyl Resorcinols, Potent and Selective Inhibitors of Human Tyrosinase” (International Journal of Molecular Sciences, 2018):

Assays:
human tyrosinase (hTyr) [1] = biological target: T1, human tyrosinase (hTyr) (Homo sapiens, UniProt P14679); experiment: L-Dopa oxidase activity of hTyr, dose-response profiles (MBTH assay); type: biochemical; design: A truncated, His-tagged form of hTyr (hTyr-DHis) was expressed in HEK 293 cells; His tag; made in house; host or cells: HEK 293 cells; settings: for inhibition of hTyr, result in words: comparison of EC50 values; for EC50: dopa oxidase activity of hTyr, 1 mM L-Dopa, phosphate buffer pH 7.0, 37 °C, values above 3 mM given as >3000; for factor by which inhibitory activity is impaired when thiazole is replaced by another ring: versus the corresponding thiazole compound (W547, W548)
T1 sequence (P14679 19-476 limits assumed): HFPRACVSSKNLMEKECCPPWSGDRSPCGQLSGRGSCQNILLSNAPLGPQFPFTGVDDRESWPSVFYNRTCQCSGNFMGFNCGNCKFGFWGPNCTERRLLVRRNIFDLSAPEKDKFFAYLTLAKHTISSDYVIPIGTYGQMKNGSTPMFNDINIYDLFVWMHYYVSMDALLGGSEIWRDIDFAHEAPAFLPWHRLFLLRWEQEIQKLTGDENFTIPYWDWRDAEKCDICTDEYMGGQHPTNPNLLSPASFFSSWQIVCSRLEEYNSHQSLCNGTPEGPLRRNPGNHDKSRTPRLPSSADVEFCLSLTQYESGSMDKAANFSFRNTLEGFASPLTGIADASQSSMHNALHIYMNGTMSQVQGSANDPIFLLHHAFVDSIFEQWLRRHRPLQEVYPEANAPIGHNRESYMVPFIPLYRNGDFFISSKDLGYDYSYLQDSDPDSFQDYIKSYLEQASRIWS
Experimental: A truncated, His-tagged form of hTyr (hTyr-DHis) was expressed in HEK 293 cells and purified by metal affinity chromatography on Ni^2+-Sepharose as described by Cordes et al..
The L-Dopa oxidase activity of hTyr was assayed by a modification of the method of Winder and Harris. In this assay, the reaction product, L-dopaquinone, is trapped by MBTH (3-methyl-2-benzothiazoline hydrazone) to yield a stable pink dye that can be quantified at 490 nm. Reaction mixtures in 100 mM phosphate buffer, pH 7.0, were set up in microtiter plates together with appropriate blanks to account for nonenzymatic oxidation of substrate and product. After thermal equilibration at 37 °C for 10 min, the reactions were started by adding enzyme and monitored for 10–20 min at 490 nm. Absorption values were read at 15 s intervals and digitally stored for later analysis. Dose-response curves were obtained by testing various concentrations of each inhibitor in triplicate at a fixed substrate (L-Dopa) concentration of 1 mM.

human tyrosinase (hTyr) [2] = biological target: T1, human tyrosinase (hTyr); settings: in vitro; cited from earlier work

| EC50 (human tyrosinase (hTyr) [1]) | SMILES | other results |
| --- | --- | --- |
| 40 ± 2 µM | CN(c1nc(-c2ccc(O)cc2O)cs1)C1CCCCC1 [W646] | inhibition of hTyr, result in words (human tyrosinase (hTyr) [1]): only moderately reduced inhibitory activity |
| 56 ± 3 µM | O=C(NC1CCCCC1)c1nc(-c2ccc(O)cc2O)cs1 [W607] | inhibition of hTyr, result in words (human tyrosinase (hTyr) [1]): only moderately increases EC50 |
| 5.7 ± 0.2 µM | OCc1ccc(Nc2nc(-c3ccc(O)cc3O)cs2)cc1 [W693] | – |
| 19 ± 1 µM | Oc1ccc(-c2csc(Nc3ncccn3)n2)cc1 [W452] | – |
| 93 ± 21 µM | CCCCCCc1ccc(O)cc1O [W072, 4-hexylresorcinol, reference compound] | – |
| > 3000 µM | Oc1cccc(-c2csc(Nc3ncccn3)n2)c1O [W568] | – |
| 160 ± 2 µM | Cc1cc(C)cc(Nc2nc(-c3ccc(O)cc3O)cs2)c1 [W537] | inhibition of hTyr, result in words (human tyrosinase (hTyr) [1]): markedly impair inhibition |
| 1400 ± 160 µM | CN(C(=O)C1CCCCC1)c1nc(-c2ccc(O)cc2O)cs1 [W605] | inhibition of hTyr, result in words (human tyrosinase (hTyr) [1]): strongly |
| 81 ± 5 µM | CC(C)(C)c1ccc(C(=O)Nc2nc(-c3ccc(O)cc3O)cs2)cc1 [W669] | inhibition of hTyr, result in words (human tyrosinase (hTyr) [1]): markedly impair inhibition |
| 220 ± 10 µM | CCCCc1ccc(O)c(C)c1O [W639] | inhibition of hTyr, result in words (human tyrosinase (hTyr) [1]): markedly impaired inhibition |
| 33 ± 1 µM | CNc1nc(-c2ccc(O)cc2O)cs1 [W366] | – |
| 16 ± 1 µM | Oc1ccc(-c2csc(NC3CCCCC3)n2)c(O)c1 [W694] | – |
| > 3000 µM | Cc1sc(NC(=O)C2CCCCC2)nc1-c1ccc(O)cc1O [W625] | inhibition of hTyr, result in words (human tyrosinase (hTyr) [1]): abolished inhibition altogether |
| 51 ± 2 µM | Nc1nc(-c2ccc(O)cc2O)cs1 [W495, 4-(2-amino-1,3-thiazol-4-yl) resorcinol] | – |
| 9.8 ± 0.3 µM | Oc1ccc(Nc2nc(-c3ccc(O)cc3O)cs2)cc1 [W542] | – |
| 5.6 ± 1.4 µM | CCCNc1nc(-c2ccc(O)cc2O)cs1 [W538] | – |
| 750 ± 60 µM | CC(=O)Nc1nc(-c2ccc(O)cc2O)c[nH]1 [W633] | factor by which inhibitory activity is impaired when thiazole is replaced by another ring (human tyrosinase (hTyr) [1]): at least 200 |
| > 3000 µM | O=C(Nc1cccc(-c2ccc(O)cc2O)c1)C1CCCCC1 [W632] | factor by which inhibitory activity is impaired when thiazole is replaced by another ring (human tyrosinase (hTyr) [1]): at least 200 |
| > 3000 µM | Oc1ccccc1-c1csc(Nc2ncccn2)n1 [W539] | – |
| > 3000 µM | CCCC(=O)Nc1nc(-c2cc(CCC)c(O)cc2O)cs1 [W681] | inhibition of hTyr, result in words (human tyrosinase (hTyr) [1]): abolished inhibition altogether |
| 25 ± 1 µM | CC(C)(C)Nc1nc(-c2ccc(O)cc2O)cs1 [W534] | – |
| 21 ± 4 µM | CCCCc1ccc(O)cc1O [W039, 4-butylresorcinol, reference compound] | – |
| – | OC[C@H]1O[C@@H](Oc2ccc(O)cc2)[C@H](O)[C@@H](O)[C@@H]1O [arbutin] | hTyr inhibition compared with thiazolyl resorcinols, in words (human tyrosinase (hTyr) [2]): clearly inferior to thiazolyl resorcinols |
| 3.2 ± 0.6 µM | CC(=O)Nc1nc(-c2ccc(O)cc2O)cs1 [W547] | – |

| EC50 (human tyrosinase (hTyr) [1]) | SMILES | other results |
| --- | --- | --- |
| 140 ± 6 µM | Oc1ccc(-c2csc(NCCc3ccccc3)n2)c(O)c1 [W496] | inhibition of hTyr, result in words (human tyrosinase (hTyr) [1]): markedly impair inhibition |
| > 3000 µM | CCCNc1nc(-c2cc(O)cc(O)c2)cs1 [W624] | – |
| 6.2 ± 0.2 µM | CC(C)Nc1nc(-c2ccc(O)cc2O)cs1 [W533] | – |
| 1.6 ± 0.4 µM | O=C(Nc1nc(-c2ccc(O)cc2O)cs1)c1ccc(CO)cc1 [W619] | – |
| 560 ± 90 µM | OCCc1ccc(O)cc1O [W785] | inhibition of hTyr, result in words (human tyrosinase (hTyr) [1]): markedly impaired inhibition |
| 3.5 ± 0.1 µM | O=C(O)c1ccc(Nc2nc(-c3ccc(O)cc3O)cs2)cc1O [W570] | – |
| 1.4 ± 0.1 µM | CC(C)(C)C(=O)Nc1nc(-c2ccc(O)cc2O)cs1 [W687] | – |
| 4.6 ± 0.2 µM | O=C(Nc1nc(-c2ccc(O)cc2O)cs1)C1CCCCC1 [W548] | – |
| 1.1 ± 0.1 µM | CC(C)C(=O)Nc1nc(-c2ccc(O)cc2O)cs1 [W630, Thiamidol] | – |
| 60 ± 2 µM | CCCCCCNc1nc(-c2ccc(O)cc2O)cs1 [W688] | – |
| > 3000 µM | O=C(NC1CCCCC1)c1csc(-c2ccc(O)cc2O)n1 [W701] | inhibition of hTyr, result in words (human tyrosinase (hTyr) [1]): abolishes activity |
| 3.2 ± 0.1 µM | Oc1ccc(-c2csc(Nc3ncccn3)n2)c(O)c1 [W311] | inhibition of hTyr, result in words (human tyrosinase (hTyr) [1]): mediates efficient inhibition |
| > 3000 µM | CCC(=O)Nc1nc(-c2ccc(O)cc2F)cs1 [W480] | – |
| – | Oc1ccc(O)cc1 [hydroquinone] | hTyr inhibition compared with thiazolyl resorcinols, in words (human tyrosinase (hTyr) [2]): clearly inferior to thiazolyl resorcinols |
| 10 ± 1 µM | Oc1ccc(-c2csc(Nc3ccccc3)n2)c(O)c1 [W367] | – |
| 2.6 ± 0.1 µM | O=C(O)c1ccc(Nc2nc(-c3ccc(O)cc3O)cs2)cc1 [W529] | – |
| 2.5 ± 0.1 µM | O=C(Nc1nc(-c2ccc(O)cc2O)cs1)c1ccccc1 [W498] | – |
| 6.5 ± 0.2 µM | O=C(Cc1ccc(CO)cc1)Nc1nc(-c2ccc(O)cc2O)cs1 [W696] | – |
| 3.2 ± 0.2 µM | CC(C)(O)c1ccc(C(=O)Nc2nc(-c3ccc(O)cc3O)cs2)cc1 [W680] | – |
| 6.9 ± 0.2 µM | OCCCCCCNc1nc(-c2ccc(O)cc2O)cs1 [W692] | – |
| 3.5 ± 0.5 µM | CCCC(=O)Nc1nc(-c2ccc(O)cc2O)cs1 [W577] | – |
| > 3000 µM | Oc1cccc(O)c1 [W089, resorcinol] | – |
| 15 ± 1 µM | CCCCCCC(=O)Nc1nc(-c2ccc(O)cc2O)cs1 [W695] | – |
